#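 Results reflect a 48-hour exposure of cells in 96-well plates to compound at five concentrations. Here, GI50 denotes the concentration required for 50% inhibition of growth. The concentration for full growth arrest is given as TGI.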
# Key:
# Assay in all cases: growth of human tumour cells (NCI), 48 h
# A498 renal = tested on: A498 renal
# HT29 colon = tested on: HT29 colon
# OVCAR-3 ovarian = tested on: OVCAR-3 ovarian
# U251 CNS = tested on: U251 CNS
# SN12C renal = tested on: SN12C renal
# SW-620 colon = tested on: SW-620 colon
# MDA-MB-231 breast = tested on: MDA-MB-231 breast
# CAKI-1 renal = tested on: CAKI-1 renal
# TK-10 renal = tested on: TK-10 renal
# SF-295 CNS = tested on: SF-295 CNS
# HCC-2998 colon = tested on: HCC-2998 colon
# SK-MEL-2 melanoma = tested on: SK-MEL-2 melanoma
# MCF7 breast = tested on: MCF7 breast
# COLO 205 colon = tested on: COLO 205 colon
# MOLT-4 leukemia = tested on: MOLT-4 leukemia
# SK-MEL-5 melanoma = tested on: SK-MEL-5 melanoma
# OVCAR-8 ovarian = tested on: OVCAR-8 ovarian
# HCT-15 colon = tested on: HCT-15 colon
# LOX IMVI melanoma = tested on: LOX IMVI melanoma
# HOP-92 NSCLC = tested on: HOP-92 NSCLC
# NCI/ADR-RES ovarian = tested on: NCI/ADR-RES ovarian
# 786-0 renal = tested on: 786-0 renal
# NCI-H23 lung = tested on: NCI-H23 lung
# SK-MEL-28 melanoma = tested on: SK-MEL-28 melanoma
# NCI-H226 lung = tested on: NCI-H226 lung
# KM12 colon = tested on: KM12 colon
# EKVX NSCLC = tested on: EKVX NSCLC
# UACC-257 melanoma = tested on: UACC-257 melanoma
# IGROV1 ovarian = tested on: IGROV1 ovarian
# HCT-116 colon = tested on: HCT-116 colon
# SK-OV-3 ovarian = tested on: SK-OV-3 ovarian
# T-47D breast = tested on: T-47D breast
# HOP-62 NSCLC = tested on: HOP-62 NSCLC
# UO-31 renal = tested on: UO-31 renal
# BT-549 breast = tested on: BT-549 breast
# SNB-19 CNS = tested on: SNB-19 CNS
# DU-145 prostate = tested on: DU-145 prostate
# RXF 393 renal = tested on: RXF 393 renal
# SNB-75 CNS = tested on: SNB-75 CNS
# PC-3 prostate = tested on: PC-3 prostate
# HL-60(TB) leukemia = tested on: HL-60(TB) leukemia
# A549 NSCLC = tested on: A549 NSCLC
# OVCAR-4 ovarian = tested on: OVCAR-4 ovarian
# OVCAR-5 ovarian = tested on: OVCAR-5 ovarian
# UACC-62 melanoma = tested on: UACC-62 melanoma
# SR leukemia = tested on: SR leukemia
# K-562 leukemia = tested on: K-562 leukemia
# NCI-H460 lung = tested on: NCI-H460 lung
# SF-268 CNS = tested on: SF-268 CNS
# RPMI-8226 leukemia = tested on: RPMI-8226 leukemia
# ACHN renal = tested on: ACHN renal
# CCRF-CEM leukemia = tested on: CCRF-CEM leukemia
# M14 melanoma = tested on: M14 melanoma
smiles,measurement,setting,value
CO[C@H]1C(=O)[C@]2(C)[C@@H](OC)C[C@H]3OC[C@@]3(OC(C)=O)[C@H]2[C@H](OC(=O)c2ccccc2)[C@]2(O)C[C@H](OC(=O)[C@H](O)[C@@H](NC(=O)OC(C)(C)C)c3ccccc3)C(C)=C1C2(C)C,GI50,A498 renal,< 0.01 µM
same,TGI,A498 renal,10.1 µM
same,GI50,HT29 colon,< 0.01 µM
same,TGI,HT29 colon,11.5 µM
same,GI50,OVCAR-3 ovarian,< 0.01 µM
same,TGI,OVCAR-3 ovarian,< 0.01 µM
same,GI50,U251 CNS,< 0.01 µM
same,TGI,U251 CNS,23.8 µM
same,GI50,SN12C renal,< 0.01 µM
same,TGI,SN12C renal,> 100 µM
same,GI50,SW-620 colon,< 0.01 µM
same,TGI,SW-620 colon,> 100 µM
same,GI50,MDA-MB-231 breast,< 0.0183 µM
same,TGI,MDA-MB-231 breast,> 53.6 µM
same,TGI,CAKI-1 renal,> 52.9 µM
same,GI50,TK-10 renal,< 0.01 µM
same,TGI,TK-10 renal,31.3 µM
same,GI50,SF-295 CNS,< 0.01 µM
same,TGI,SF-295 CNS,23.9 µM
same,GI50,HCC-2998 colon,< 0.01 µM
same,TGI,HCC-2998 colon,< 0.0168 µM
same,GI50,SK-MEL-2 melanoma,< 0.01 µM
same,TGI,SK-MEL-2 melanoma,0.973 µM
same,GI50,MCF7 breast,< 0.01 µM
same,TGI,MCF7 breast,20.5 µM
same,GI50,COLO 205 colon,< 0.01 µM
same,TGI,COLO 205 colon,0.0103 µM
same,GI50,MOLT-4 leukemia,< 0.0114 µM
same,TGI,MOLT-4 leukemia,27.8 µM
same,GI50,SK-MEL-5 melanoma,< 0.01 µM
same,TGI,SK-MEL-5 melanoma,17.3 µM
same,GI50,OVCAR-8 ovarian,< 0.01 µM
same,TGI,OVCAR-8 ovarian,> 100 µM
same,GI50,HCT-15 colon,< 0.01 µM
same,TGI,HCT-15 colon,56 µM
same,GI50,LOX IMVI melanoma,< 0.01 µM
same,TGI,LOX IMVI melanoma,49.7 µM
same,TGI,HOP-92 NSCLC,33 µM
same,GI50,NCI/ADR-RES ovarian,0.0269 µM
same,TGI,NCI/ADR-RES ovarian,1.24 µM
same,GI50,786-0 renal,< 0.01 µM
same,TGI,786-0 renal,87.3 µM
same,GI50,NCI-H23 lung,< 0.01 µM
same,TGI,NCI-H23 lung,> 100 µM
same,TGI,SK-MEL-28 melanoma,39.8 µM
same,GI50,NCI-H226 lung,2.09 µM
same,TGI,NCI-H226 lung,39.7 µM
same,GI50,KM12 colon,< 0.01 µM
same,TGI,KM12 colon,22.4 µM
same,GI50,EKVX NSCLC,0.425 µM
same,TGI,EKVX NSCLC,> 100 µM
same,TGI,UACC-257 melanoma,> 63 µM
same,GI50,IGROV1 ovarian,< 0.01 µM
same,TGI,IGROV1 ovarian,> 100 µM
same,GI50,HCT-116 colon,< 0.01 µM
same,TGI,HCT-116 colon,21.2 µM
same,GI50,SK-OV-3 ovarian,< 0.01 µM
same,TGI,SK-OV-3 ovarian,35.2 µM
same,GI50,T-47D breast,< 0.01 µM
same,TGI,T-47D breast,> 100 µM
same,GI50,HOP-62 NSCLC,< 0.01 µM
same,TGI,HOP-62 NSCLC,> 80.4 µM
same,GI50,UO-31 renal,< 0.01 µM
same,TGI,UO-31 renal,54.3 µM
same,GI50,BT-549 breast,< 0.01 µM
same,TGI,BT-549 breast,26.8 µM
same,GI50,SNB-19 CNS,< 0.0134 µM
same,TGI,SNB-19 CNS,> 100 µM
same,GI50,DU-145 prostate,< 0.01 µM
same,TGI,DU-145 prostate,< 0.01 µM
same,GI50,RXF 393 renal,< 0.01 µM
same,TGI,RXF 393 renal,10.7 µM
same,GI50,SNB-75 CNS,< 0.01 µM
same,TGI,SNB-75 CNS,< 0.01 µM
same,GI50,PC-3 prostate,< 0.01 µM
same,TGI,PC-3 prostate,> 77.8 µM
same,GI50,HL-60(TB) leukemia,< 0.01 µM
same,TGI,HL-60(TB) leukemia,< 0.01 µM
same,GI50,A549 NSCLC,< 0.01 µM
same,TGI,A549 NSCLC,> 64.9 µM
same,TGI,OVCAR-4 ovarian,> 77.1 µM
same,GI50,OVCAR-5 ovarian,< 0.01 µM
same,TGI,OVCAR-5 ovarian,41.5 µM
same,GI50,UACC-62 melanoma,< 0.0147 µM
same,TGI,UACC-62 melanoma,56.8 µM
same,GI50,SR leukemia,< 0.01 µM
same,GI50,K-562 leukemia,< 0.01 µM
same,TGI,K-562 leukemia,> 100 µM
same,GI50,NCI-H460 lung,< 0.01 µM
same,TGI,NCI-H460 lung,13 µM
same,GI50,SF-268 CNS,< 0.01 µM
same,TGI,SF-268 CNS,68.6 µM
same,GI50,RPMI-8226 leukemia,< 0.01 µM
same,TGI,RPMI-8226 leukemia,> 38 µM
same,GI50,ACHN renal,12.6 µM
same,TGI,ACHN renal,> 100 µM
same,GI50,CCRF-CEM leukemia,< 0.01 µM
same,TGI,CCRF-CEM leukemia,42.3 µM
same,GI50,M14 melanoma,< 0.01 µM
same,TGI,M14 melanoma,17.8 µM

# Reference: PubChem BioAssay (NCI)
